Results taken from ChEMBL document CHEMBL1154918, “Cytotoxic chemical constituents from the roots of Cimicifuga foetida. [corrected]” (J Nat Prod, 2010).

Key:
Type in all cases: functional, cell-based
HT-29 = experiment: Cytotoxicity against human HT-29 cells after 72 hrs by MTT assay; conditions: HT-29, 72 h
MCF7 = experiment: Cytotoxicity against human MCF7 cells after 72 hrs by MTT assay; conditions: MCF7, 72 h
HepG2 = experiment: Cytotoxicity against human HepG2 cells after 72 hrs by MTT assay; conditions: HepG2, 72 h
MKN-28 = experiment: Cytotoxicity against human MKN28 cells after 72 hrs by MTT assay; conditions: MKN-28, 72 h

Row | Structure (SMILES) | IC50 (HT-29) [µM] | IC50 (MCF7) [µM] | IC50 (HepG2) [µM] | IC50 (MKN-28) [µM]
1 | C/C=C/C(=O)O[C@H]1[C@H](O[C@H]2CC[C@]34C[C@]35CC[C@]3(C)[C@H]6[C@H](C)C[C@H]7O[C@@]6(C[C@@H]7C(C)(C)OC(C)=O)[C@H](O)[C@@]3(C)[C@@H]5CC[C@H]4C2(C)C)OC[C@@H](O)[C@@H]1O | 78.5 | > 100 | 6.37 | 53.8
2 | C/C=C/C(=O)O[C@@H]1CO[C@@H](O[C@H]2CC[C@]34C[C@]35CC[C@]3(C)[C@H]6[C@H](C)C[C@H]7O[C@@]6(C[C@@H]7C(C)(C)OC(C)=O)[C@H](O)[C@@]3(C)[C@@H]5CC[C@H]4C2(C)C)[C@H](O)[C@H]1O | > 100 | > 100 | 1.29 | > 100
3 | CC(=O)O[C@@H]1[C@@H](O)[C@H](O[C@H]2CC[C@]34C[C@]35CC[C@]3(C)[C@H]6[C@H](C)C[C@H]7O[C@@]6(C[C@@H]7C(C)(C)OC(C)=O)[C@H](O)[C@@]3(C)[C@@H]5CC[C@H]4C2(C)C)OC[C@H]1O | 28.9 | > 100 | 0.71 | > 100
4 | CC(=O)O[C@@H]1CO[C@@H](O[C@H]2CC[C@]34C[C@]35CC[C@]3(C)[C@H]6[C@H](C)C[C@H]7O[C@@]6(C[C@@H]7C(C)(C)OC(C)=O)[C@H](O)[C@@]3(C)[C@@H]5CC[C@H]4C2(C)C)[C@H](O)[C@H]1O | 26.1 | > 100 | 2.8 | > 100
5 | CC(=O)O[C@@H]1C[C@@]23C[C@@]24CC[C@H](O[C@@H]2OC[C@@H](O)[C@H](O)[C@H]2O)C(C)(C)[C@@H]4CC[C@H]3[C@]2(C)[C@@H](O)[C@@]34C[C@H](C(C)(C)OC(C)=O)[C@@H](C[C@@H](C)[C@@H]3[C@@]12C)O4 | > 100 | 47.5 | > 100 | > 100
6 | CC(=O)O[C@@H]1[C@@H](O)[C@H](O[C@H]2CC[C@]34C[C@]35C[C@@H](OC(C)=O)[C@]3(C)[C@H]6[C@H](C)C[C@]7(C[C@H](O)[C@@]8(C)O[C@@H]78)O[C@H]6C[C@@]3(C)[C@@H]5CC[C@H]4C2(C)C)OC[C@H]1O | 50.1 | > 100 | 32.1 | 53.4
7 | CC(=O)O[C@@H]1[C@@H](O)[C@H](O[C@H]2CC[C@]34C[C@]35C[C@@H](OC(C)=O)[C@]3(C)[C@H]6[C@H](C)C[C@@]7(CC[C@]8(C)O[C@H]78)O[C@H]6C[C@@]3(C)[C@@H]5CC[C@H]4C2(C)C)OC[C@H]1O | 35.7 | > 100 | 1.41 | > 100
8 | CC(=O)O[C@@H]1C[C@@]23C[C@@]24CC[C@H](O)C(C)(C)[C@@H]4CC[C@H]3[C@]2(C)C[C@@H]3O[C@@]4(CC[C@@]5(C)O[C@@H]45)C[C@@H](C)[C@@H]3[C@@]12C | 35.4 | > 100 | 27.7 | 82.2
9 | CC(=O)OC(C)(C)[C@H]1C[C@@]23O[C@@H]1C[C@@H](C)[C@@H]2[C@@]1(C)CC[C@@]24C[C@@]25CC[C@H](O)C(C)(C)[C@@H]5CC[C@H]4[C@]1(C)[C@H]3O | > 100 | > 100 | 20.3 | > 100
10 | CC(=O)O[C@@H]1C[C@@]23C[C@@]24CC[C@H](O)C(C)(C)[C@@H]4CC[C@H]3[C@]2(C)[C@@H](O)[C@@]34C[C@H](C(C)(C)O)[C@@H](C[C@@H](C)[C@@H]3[C@@]12C)O4 | > 100 | > 100 | 43.1 | > 100
11 | C[C@@H]1C[C@H]2O[C@@]3(C[C@@H]2C(C)(C)O)[C@H](O)[C@@]2(C)[C@@H]4CC[C@H]5C(C)(C)[C@@H](O[C@@H]6OC[C@H](O)[C@H](O)[C@H]6O)CC[C@@]56C[C@@]46CC[C@]2(C)[C@@H]13 | > 100 | > 100 | 20.4 | > 100
12 | C[C@@H]1C[C@H]2O[C@@]3(C[C@@H]2C(C)(C)O)[C@H](O)[C@@]2(C)[C@@H]4CC[C@H]5C(C)(C)C(=O)CC[C@@]56C[C@@]46CC[C@]2(C)[C@@H]13 | 15.4 | > 100 | 5.51 | 72
13 | CC(=O)O[C@@H]1C[C@@]23C[C@@]24CC[C@H](O)C(C)(C)[C@@H]4CC[C@H]3[C@]2(C)C[C@@H]3O[C@]4(C[C@@H](C)[C@@H]3[C@@]12C)C[C@H](O)[C@@]1(C)O[C@@H]41 [ACTEINOL] | > 100 | > 100 | 2.56 | > 100
14 | CC(=O)O[C@@H]1C[C@@]23C[C@@]24CC[C@H](O[C@@H]2OC[C@@H](O)[C@H](O)[C@H]2O)C(C)(C)[C@@H]4CC[C@H]3[C@]2(C)C[C@@H]3OC(C(=O)C(C)C)=C[C@@H](C)[C@@H]3[C@@]12C [ASIATICOSIDE A] | 49.4 | > 100 | 4.02 | 54.8
15 | CC(C)(O)[C@@H]1Cc2c(cc3oc(CO)cc(=O)c3c2O)O1 [NORCIMIFUGIN] | > 100 | > 100 | 5.55 | > 100
